pKd: −log10 of the molar value.
Target: T1, Thiamine-binding periplasmic protein (Escherichia coli (strain K12), UniProt P31550)
T1 sequence (P31550 whole entry): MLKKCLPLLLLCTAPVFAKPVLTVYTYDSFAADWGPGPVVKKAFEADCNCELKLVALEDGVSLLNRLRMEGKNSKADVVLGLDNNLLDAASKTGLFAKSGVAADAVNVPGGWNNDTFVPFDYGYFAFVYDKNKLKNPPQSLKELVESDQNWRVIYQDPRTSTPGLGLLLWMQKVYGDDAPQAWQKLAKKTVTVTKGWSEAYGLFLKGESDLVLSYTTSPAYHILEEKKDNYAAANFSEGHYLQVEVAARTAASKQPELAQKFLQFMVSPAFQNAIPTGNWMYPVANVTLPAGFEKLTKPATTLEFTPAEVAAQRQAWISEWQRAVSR
Test: Titration Assay
Experimental: the kd for ThOH, ThMP and ThDP were determined using titration experiments in which the change in the intrinsic protein fluorescence was monitored as a function of ligand concentration.

Structure (SMILES)	pKd
Cc1ncc(C[n+]2csc(CCO[P@](=O)(O)OP(=O)(O)O)c2C)c(N)n1 [ThDP]	8.13
Cc1ncc(C[n+]2csc(CCO)c2C)c(N)n1 [Vitamin B 1]	8.42

Source: BindingDB's records for doi:10.1021/bi7018282 (Cornell University, 2008)
